Laboratory results from patent publication US9034866B2 (Genentech, Inc., priority 2012, dated 2015).
Read-outs that look alike come from different tables or passages of the source.

How the values were obtained:
[1] = test system: p52 (NF-kB2) nuclear translocation in HeLa cells; assay: p52 nuclear translocation assay (non-classical NF-kB signaling), high content imaging; assay type: cell-based; settings: 100 ng/mL anti-lymphotoxin beta receptor antibody for 5 hours, read-out: p52 HeLa Transloc Assay (IC50)
Procedure: (§1) (2) A second set of cell assay are used to define the selectivity of NIK inhibitors toward inhibition of classical vs. non-classical NF-kB signaling and rely on quantification of the nuclear translocation of p52 (NF-kB2) and REL-A (p65) using high content cellular imaging. For the p52 (non-classical NF-kB signaling) nuclear translocation assay, HeLa cells are treated with different concentrations of compounds (0.2% DMSO final) in medium containing 10% fetal bovine serum and then stimulated with 100 ng/mL, of an anti-lymphotoxin beta receptor antibody (R&D Systems) for 5 hours. In the REL-A nuclear translocation assay, HeLa cells are incubated with compounds (0.2% DMSO final) for 4.5 hours in medium containing 10% fetal bovine serum before stimulating them with 10 ng/mL tumor necrosis factor (TNF)-α (R&D Systems) for 30 minutes. Cells are fixed with 4% paraformaldehyde, permeabilized by adding 0.1% Triton X-100 in phosphate buffered saline, and then are incubated with either 2 ug/mL anti-p52 antibody (Millipore) or 400 ng/mL anti-REL-A (p65) antibody (Santa Cruz Biotechnology). Finally, the cells are incubated with an Alexa488-labeled secondary antibody (Invitrogen) and DRAQ5 DNA stain (Biostatus). Imaging is carried out using an Opera reader (Perkin Elmer) and data are analyzed with the aid of Acapella software (Perkin Elmer). The p52 or REL-A translocation into the nucleus is quantified by the ratio of the nuclear to cytoplasmic signal intensity. […] The compounds in listed in Table 1 have the corresponding inhibitory value (IC50 in micromolar) for NIK p52 Translocation Assay as set forth in Table 2.

[2] = test system: REL-A (p65) nuclear translocation in HeLa cells; assay: REL-A nuclear translocation assay (classical NF-kB signaling), high content imaging; assay type: cell-based; settings: Homo sapiens, compounds 4.5 hours, then 10 ng/mL TNF-α for 30 minutes, read-out: REL-A HeLa Transloc Assay (IC50)
Procedure: as §1
The compounds in listed in Table 1 has the corresponding inhibitory value (IC50 in micromolar) for NIK RelA Translocation Assay as set forth in Table 2.

With `NC(=O)c1nc2c(s1)CCOc1cc(F)c(C#CC3(O)CCCC3)cc1-2` [Example 40, 8-fluoro-9-(1-hydroxy-cyclopentyl-ethynyl)-4,5-dihydro-6-oxa-3-thia-1-aza-benzo[e]azulene-2-carboxylic acid amide] the IC50 ([1]; Homo sapiens) was 68 nM and the IC50 [2] was 20000 nM.

With `COC[C@](C)(O)C#Cc1cc2c(cc1F)C1CC(C1)n1cc(C(N)=O)nc1-2` the IC50 ([1]; Homo sapiens, HeLa, 5 h) was 2100 nM and the IC50 ([2]; HeLa) was greater than 20000 nM.

For `CC(O)(C#Cc1cc2c(cc1F)OCCc1sc(C(N)=O)nc1-2)c1ccccn1` (centres unmarked) [Example 93], the IC50 ([1]; Homo sapiens, HeLa, 5 h) was 344 nM and the IC50 ([2]; HeLa) was 20000 nM.

`Cc1cc([C@](C)(O)C#Cc2cc3c(cc2F)OCCn2c-3nc(C(N)=O)c2C(=O)NCC#N)no1` [Example 107] was tested, and the IC50 ([1]; Homo sapiens) was 83.1 nM and the IC50 [2] was 20000 nM.

`CNC(=O)c1c(C(N)=O)nc2n1C1CC(C1)c1ccc(C#CC3(O)CCC3)cc1-2` [Example 361, 10-[2-(1-hydroxycyclobutyl)ethynyl]-N3-methyl-5,6,7,12-tetrahydro-5,7-meth-anobenzo[c]imidazo[1,2-a]azepine-2,3-dicarboxamide] was tested, and the IC50 ([1]; Homo sapiens, HeLa, 5 h) was 409 nM and the IC50 ([2]; HeLa) was greater than 20000 nM.

Work on `CN1CC[C@@](O)(C#Cc2ccc3c(c2)-n2nc(C(N)=O)c(C(F)(F)F)c2CCO3)C1=O` (racemic) [Example 500] yielded an IC50 ([1]; Homo sapiens, HeLa, 5 h) of 381 nM and an IC50 ([2]; HeLa) greater than 20000 nM.

`CNC(=O)c1c(C(N)=O)nc2n1C1CC(C1)c1cc(F)c(C#CC3(O)CCC3)cc1-2` [Example 368, 9-fluoro-10-[2-(1-hydroxycyclobutyl)ethy-nyl]-N3-methyl-5,6,7,12-tetrahydro-5,7-methanobenzo[c]imidazo[1,2-a]azepine-2,3-dicarboxamide] gave an IC50 ([1]; Homo sapiens, HeLa, 5 h) of 342 nM and an IC50 ([2]; HeLa) greater than 20000 nM.

`CNC(=O)c1c(C(N)=O)nc2n1C1CC(C1)c1ccc(C#CC3(O)CCCC3)cc1-2` (racemic) gave an IC50 ([1]; Homo sapiens, HeLa, 5 h) of 709 nM and an IC50 ([2]; HeLa) greater than 20000 nM.

With `NC(=O)c1nc2n(c1C1CC1)C1CC(C1)c1cc(F)c(C#C[C@]3(O)CCNC3=O)cc1-2` [Example 338, 3-cyclopropyl-9-fluoro-10-[2-[(3R)-3-hy-droxy-2-oxo-pyrrolidin-3-yl]ethynyl]-5,6,7,12-tetrahydro-5,7-methano-benzo[c]imidazo[1,2-a]azepine-2-carboxamide] the IC50 ([1]; Homo sapiens, HeLa, 5 h) was 3000 nM and the IC50 ([2]; HeLa) was greater than 20000 nM.

With `Cc1cc([C@](C)(O)C#Cc2ccc3c(c2)-c2nc(C(N)=O)c(Cn4c(C)nc5ccccc54)n2CCO3)no1` [Example 415, 9-fluoro-10-(3-hydroxy-3-methyl-but-1-ynyl)-3-[(2-methoxyethylamino)methyl]-5,6,7,12-tetrahydro-5,7-methanobenzo[c]imidazo[1,2-a]azepine-2-carboxamide] the IC50 ([1]; Homo sapiens, HeLa, 5 h) was 979 nM and the IC50 ([2]; HeLa) was greater than 20000 nM.

`NC(=O)c1cn2c(n1)-c1cc(C#CC3(O)CCC3)ccc1C1CC2C1` [Example 369, 10-[2-(1-hydroxycyclobutyl)ethynyl]-5,6,7,12-tetrahydro-5,7-methanobenzo[c]imi-dazo[1,2-a]azepine-2-carboxamide] gave an IC50 ([1]; Homo sapiens) of 3700 nM and an IC50 [2] greater than 20000 nM.

In the case of `Cc1cc([C@](C)(O)C#Cc2ccc3c(c2)-c2nc(C(N)=O)c(CN4CCCC4)n2C2CC3C2)no1` [Example 424, 10-(3-hydroxy-3-methyl-but-1-ynyl)-N3-methyl-5,6,7,12-tetrahydro-5,7-methanobenzo[c]imidazo[1,2-a]azepine-2,3-dicarboxamide], the IC50 ([1]; Homo sapiens, HeLa, 5 h) is reported as 3200 nM and the IC50 ([2]; HeLa) is reported as greater than 20000 nM.

`Cc1cc([C@](C)(O)C#Cc2cc3c(cc2F)C2CC(C2)n2c-3nc(C(N)=O)c2CNC(=O)C2CC2)no1` [Example 363] gave an IC50 ([1]; Homo sapiens) of 660 nM and an IC50 [2] greater than 20000 nM.

In the case of `Cn1nccc1C(O)c1c(C(N)=O)nc2n1C1CC(C1)c1cc(F)c(C#CC3(O)CCCC3)cc1-2` (centres unmarked) [Example 304, 9-fluoro-10-[2-(1-hydroxycyclopen-tyl)ethynyl]-3-[hydroxy-(2-methylpyrazol-3-yl)methyl]-5,6,7,12-tetrahydro-5,7-meth-anobenzo[c]imidazo[1,2-a]azepine-2-car-boxamide], the IC50 ([1]; Homo sapiens, HeLa, 5 h) is reported as 1100 nM and the IC50 ([2]; HeLa) is reported as greater than 20000 nM.

With `CN1CCC(O)(C#Cc2ccc3c(c2)-c2nc(C(N)=O)sc2CCO3)C1=O` (racemic) the IC50 ([1]; Homo sapiens, HeLa, 5 h) was 300 nM and the IC50 ([2]; HeLa) was greater than 20000 nM.

`CC(C)(O)C#Cc1cc2c(cc1F)C1CC(C1)n1c-2nc(C(N)=O)c1CNC(=O)C1CC1` (racemic) was tested, and the IC50 ([1]; Homo sapiens, HeLa, 5 h) was 1400 nM and the IC50 ([2]; HeLa) was greater than 20000 nM.

For `CN1CC[C@@](O)(C#Cc2cc3c(cc2F)OCCn2c-3nc(C(N)=O)c2C2CC2)C1=O` [Example 418, 9-fluoro-10-(3-hydroxy-3-methyl-but-1-ynyl)-3-[[2-methoxyethyl(methyl)amino]methyl]-5,6,7,12-tetrahydro-5,7-methanobenzo[c]imidazo[1,2-a]azepine-2-carboxamide], the IC50 ([1]; Homo sapiens, HeLa, 5 h) was 515 nM and the IC50 ([2]; HeLa) was greater than 20000 nM.

Work on `CN1CCC(O)(C#Cc2cc3c(cc2F)OCCn2cc(C(N)=O)nc2-3)C1=O` (racemic) yielded an IC50 ([1]; Homo sapiens, HeLa, 5 h) of 4100 nM and an IC50 ([2]; HeLa) greater than 20000 nM.

With `CNC(=O)c1c(C(N)=O)nc2n1CCOc1ccc(C#C[C@]3(O)CCN(C)C3=O)cc1-2` (racemic) [Example 419, (±)-9-fluoro-10-(3-hydroxy-3-methyl-but-1-ynyl)-3-[(3-hydroxypyrrolidin-1-yl)methyl]-5,6,7,12-tetrahydro-5,7-methanobenzo[c]imidazo[1,2-a]azepine-2-carboxamide] the IC50 ([1]; Homo sapiens, HeLa, 5 h) was 317 nM and the IC50 ([2]; HeLa) was greater than 20000 nM.

`CC(C)(O)C#Cc1ccc2c(c1)-c1nc(C(N)=O)c(-c3nnc(C4CC4)s3)n1C1CC2C1` [Example 390, 9-fluoro-10-(3-hydroxy-3-methyl-but-1-ynyl)-3-(trifluoromethyl)-5,6,7,12-tetrahydro-5,7-methanobenzo[c]imidazo[1,2-a]azepine-2-carboxamide] was tested, and the IC50 ([1]; Homo sapiens, HeLa, 5 h) was 1500 nM and the IC50 ([2]; HeLa) was 9500 nM.

`CN1CC[C@@](O)(C#Cc2ccc3c(c2)-n2nc(C(N)=O)cc2C2(CC2)CO3)C1=O` [Example 460] gave an IC50 ([1]; Homo sapiens, HeLa, 5 h) of 252 nM and an IC50 ([2]; HeLa) greater than 20000 nM.

With `Cc1nc([C@](C)(O)C#Cc2cc3c(cc2F)OC[C@@H](N(C)C)c2sc(C(N)=O)nc2-3)no1` (racemic) [Example 256] the IC50 [1] was 2000 nM, the IC50 ([1]; Homo sapiens, HeLa, 5 h) was 2900 nM and the IC50 ([2]; HeLa) was greater than 20000 nM.

With `CN1CC[C@@](O)(C#Cc2ccc3c(c2)-c2nc(C(N)=O)c(Cc4ccccc4Cl)n2C2CC3C2)C1=O` [Example 308] the IC50 ([1]; Homo sapiens, HeLa, 5 h) was 1500 nM and the IC50 ([2]; HeLa) was 20000 nM.

Compound `NC(=O)c1nc2n(c1C(O)c1ccn[nH]1)C1CC(C1)c1cc(F)c(C#CC3(O)CCCC3)cc1-2` (racemic) [Example 310] has an IC50 ([1]; Homo sapiens, HeLa, 5 h) of 2600 nM and an IC50 ([2]; HeLa) greater than 20000 nM.

For `CN1CC[C@@](O)(C#Cc2cc3c(cc2F)C2CC(C2)n2cc(C(N)=O)nc2-3)C1=O` [Example 300], the IC50 ([1]; Homo sapiens, HeLa, 5 h) was 3000 nM and the IC50 ([2]; HeLa) was greater than 20000 nM.

With `CN1CC[C@@](O)(C#Cc2ccc3c(c2)-c2nc(C(N)=O)sc2CCO3)C1=O` [Example 276] the IC50 ([1]; Homo sapiens, HeLa, 5 h) was 94.6 nM and the IC50 ([2]; HeLa) was 20000 nM.

With `Cc1cc([C@](C)(O)C#Cc2ccc3c(c2)-n2nc(C(N)=O)cc2[C@H](F)CO3)no1` the IC50 ([1]; Homo sapiens, HeLa, 5 h) was 379 nM and the IC50 ([2]; HeLa) was greater than 20000 nM.

`Cn1c(C(N)=O)nc2c1C1CC(C1)c1ccc(C#C[C@@](C)(O)c3ncccn3)cc1-2` [Example 427, 9-fluoro-10-(3-hydroxy-3-methyl-but-1-ynyl)-N3-methyl-5,6,7,12-tetrahydro-5,7-methanobenzo[c]imidazo[1,2-a]azepine-2,3-dicarboxamide] showed an IC50 ([1]; Homo sapiens, HeLa, 5 h) of 453 nM and an IC50 ([2]; HeLa) greater than 20000 nM.

With `CNC(=O)c1c(C(N)=O)nc2n1C1CC(C1)c1ccc(C#CC(C)(C)O)cc1-2` (racemic) the IC50 ([1]; Homo sapiens, HeLa, 5 h) was 736 nM and the IC50 ([2]; HeLa) was greater than 20000 nM.

Work on `CC(C)(O)C#Cc1cc2c(cc1F)C1CC(C1)n1c-2nc(C(N)=O)c1C1CC1` [Example 195, 3-cyclopropyl-9-fluoro-10-(3-hydroxy-3-methyl-but-1-ynyl)-5,6,7,12-tetrahydro-5,7-methanobenzo[c]imidazo[1,2-a]azepine-2-carboxamide] yielded an IC50 ([1]; Homo sapiens, HeLa, 5 h) of 2400 nM and an IC50 ([2]; HeLa) greater than 20000 nM.

`CN1CC[C@@](O)(C#Cc2cc3c(cc2F)C2CC(C2)c2c-3nc(C(N)=O)n2C)C1=O` (mixture of isomers) [Example 381, (±)-10-[3-hydroxy-3-(2-pyridyl)but-1-ynyl]-5,6,7,12-tetrahydro-5,7 methanobenzo[c]imidazo[1,2-a]azepine-2-carboxamide] showed an IC50 ([1]; Homo sapiens, HeLa, 5 h) of 285 nM and an IC50 ([2]; HeLa) greater than 20000 nM.

`Cc1nc2ccccc2n1Cc1c(C(N)=O)nc2n1CCOc1ccc(C#C[C@]3(O)CCN(C)C3=O)cc1-2` [Example 416, 9-fluoro-10-[(3R)-3-hydroxy-3-(5-methylisoxazol-3-yl)but-1-ynyl]-3-[1-(2-hydroxy-2-methyl-propyl)pyrazol-4-yl]-5,6,7,12-tetrahydro-5,7-methanobenzo[c]imidazo[1,2-a]azepine-2-carboxamide] was tested, and the IC50 ([1]; Homo sapiens, HeLa, 5 h) was 3200 nM and the IC50 ([2]; HeLa) was greater than 20000 nM.
